Literature values in patent EP0279688B1, “Methods and compositions for the use of HIV env polypeptides and antibodies thereto” (GENENTECH, INC., priority 1987, dated 1988).

System: viral replication
Settings: Mitsuya and Broder, 1985

| SMILES | concentrations inhibiting viral replication |
| --- | --- |
| Cc1cn([C@H]2C[C@H](N=[N+]=[N-])[C@@H](CO)O2)c(=O)[nH]c1=O [AZT] | 50-500 µm |
| Nc1ccn([C@H]2CC[C@@H](CO)O2)c(=O)n1 [DDC] | 50-500 µm |
